Measurements taken from patent US10472395B2, “Cyclic peptide analogs and conjugates thereof” (Sirenas LLC, priority 2015, dated 2019).
Like-named read-outs stand apart in the source and are kept apart here. Numbered stars: 1 amine (or outer) side, 2 acyl side, 3 side chain; on linkers, the order of the positions; unused ones are H or OH. Bridge positions count the residues as written; N and C are the ends. Square brackets hold non-standard residues; d marks the D form. Peptide text beside a SMILES is read from it. ξ: configuration not given here. X4 = C/C=C(\C)[C@@H](N[*:1])[C@@H](C)[C@H](O)C/C=C(\C)C(=O)O[C@H](CC(C)C)C(=O)[*:2]; X5 = C/C(=C\CC[C@H](C)CO[*:2])C(=O)[*:1]; X10 = C/C(=C\CCCCO[*:2])C(=O)[*:1]; X11 = C/C(=C\CCO[*:2])C(=O)[*:1]; X9 = C/C(=C\CCCO[*:2])C(=O)[*:1]; dNMeF = CN[C@H](Cc1ccccc1)C(=O)O; Ile(3ξ) = CCC(C)[C@H](N)C(=O)O; dHica = CC(C)C[C@@H](O)C(=O)O; dHiv = CC(C)[C@@H](O)C(=O)O; NMeA = CN[C@@H](C)C(=O)O; dAbu = CC[C@@H](N)C(=O)O; dNMeA = CN[C@H](C)C(=O)O; Abu = CC[C@H](N)C(=O)O; Aib = CC(C)(N)C(=O)O; Sar = CNCC(=O)O

Tests used:
[1] = tested on: BT-474 human mammary gland ductal carcinoma cells; experiment: Inhibitory response of test compounds against BT-474 cells (Cell Titer-Glo, 72 h); format: cell-based
Procedure: (§1) BT-474 human mammary gland ductal carcinoma cells were seeded in a clear polystyrene 96-well microculture plate (Corning® Costar® 96-well flat bottom plate, Cat.#3997) in a total volume of 90 μL/well. After 24 hours of incubation in a humidified incubator at 37° C. with 5% CO2 and 95% air, 10 μL of 10×, serially diluted test agents in growth medium were added to each well (10 pt dose response curve, highest concentration 10 μM of test agent). After 72 hours of culture in a humidified incubator at 37° C., in an atmosphere of 5% CO2 and 95% air, the plated cells and Cell Titer-Glo® (Promega G7571) reagents were brought to room temperature to equilibrate for 30 minutes. 100 μL of Cell Titer-Glo® reagent was added to each well. The plate was shaken for two minutes and then left to equilibrate for ten minutes. The media/Cell Titer-Glo® reagent was transferred to a white polystyrene 96-well microculture plate (Corning® Costar® 96-well flat bottom plate, Cat.#3917) before reading luminescence on a Tecan GENios microplate reader.
(§2) Percent inhibition of cell growth was calculated relative to untreated control wells. The IC50 value for the test agents was determined using Prism 6.05 by curve-fitting of the data using the following four parameter-logistic equation:
(§3) [formula] where Top is the maximal % of control absorbance, Bottom is the minimal % of control absorbance at the highest agent concentration, Y is the % of control absorbance, X is the agent concentration, IC50 is the concentration of agent that inhibits cell growth by 50% compared to the control cells, and n is the slope of the curve.

[2] = tested on: HCC1954 cells; experiment: Inhibitory response of test compounds against HCC1954 cells (method analogous to BT-474); format: cell-based; details: Homo sapiens
Procedure: as §1, §2, §3
Inhibitory response of test compounds against HCC1954 cells was determined using a method analogous to that used for BT-474 cells.

Row | SMILES | IC50 ([1]; Homo sapiens) [nM] | also measured
1 | C/C=C(\C)[C@H]1NC(=O)[C@@H](C)NC(=O)[C@H](C(C)CC)NC(=O)CN(C)C(=O)[C@@H](Cc2ccccc2)N(C)C(=O)[C@H](C)NC(=O)[C@@H](CC(C)C)OC(=O)/C(C)=C/C[C@@H](O)[C@@H]1C (stereo partly shown) [Compound 19] (cyclo(A[dNMeF][Sar][Ile(3ξ)][dA][X4])) | > 10000 | IC50 ([1]; Homo sapiens, 72 h, Cell Titer-Glo, highest concentration 10 μM): > 10000 nM
2 | CCC(C)[C@@H]1NC(=O)CN(C)C(=O)[C@@H](Cc2ccccc2)N(C)C(=O)[C@H](C)NC(=O)[C@@H](CC(C)C)OC(=O)/C(C)=C/CCCOC(=O)[C@@H](C)NC1=O (stereo partly shown) [Compound 5] ([dHica]A[dNMeF][Sar][Ile(3ξ)][dA]; linker N-C via X9) | > 10000 | –
3 | C/C=C(\C)[C@H]1OC(=O)[C@@H](C)NC(=O)[C@H]([C@H](C)CC)NC(=O)CN(C)C(=O)[C@@H](Cc2ccccc2)N(C)C(=O)[C@H](C)NC(=O)[C@@H](CC(C)C)OC(=O)/C(C)=C/C[C@H](OC(=O)NCCCCCCNC(=O)OC(C)(C)C)[C@@H]1C [Compound 105] | < 20 | IC50 [2]: < 20 nM
4 | CCC(C)[C@@H]1NC(=O)CN(C)C(=O)[C@@H](Cc2ccccc2)N(C)C(=O)[C@H](C)NC(=O)[C@@H](CC(C)C)OC(=O)/C(C)=C/CC[C@H](C)COC(=O)[C@@H](C)NC1=O (stereo partly shown) [Compound 91] ([dHica]A[dNMeF][Sar][Ile(3ξ)][dA]; linker N-C via X5) | 200 to 10000 | IC50 [2]: 200 to 10000 nM
5 | CCC(C)[C@@H]1NC(=O)CN(C)C(=O)[C@@H](Cc2ccccc2)N(C)C(=O)[C@H](C)NC(=O)[C@@H](CC(C)C)OC(=O)/C(C)=C/CCCCOC(=O)[C@@H](C)NC1=O (stereo partly shown) [Compound 13] ([dHica]A[dNMeF][Sar][Ile(3ξ)][dA]; linker N-C via X10) | > 10000 | –
6 | C/C=C(\C)[C@H]1OC(=O)[C@@H](C)NC(=O)[C@H]([C@H](C)CC)NC(=O)CN(C)C(=O)[C@@H](Cc2ccccc2)N(C)C(=O)[C@H](C)NC(=O)[C@@H](CC(C)C)OC(=O)/C(C)=C/C[C@H](OC(=O)N(C)CCNC)[C@@H]1C [Compound 75] | < 20 | IC50 [2]: < 20 nM
7 | CCC(C)[C@@H]1NC(=O)CN(C)C(=O)[C@@H](Cc2ccccc2)N(C)C(=O)[C@H](C)NC(=O)[C@@H](CC(C)C)OC(=O)/C(C)=C/CCCCOC(=O)[C@@H](CC)NC1=O (stereo partly shown) [Compound 77] ([dHica]A[dNMeF][Sar][Ile(3ξ)][dAbu]; linker N-C via X10) | > 10000 | –
8 | C/C=C(\C)[C@H]1OC(=O)[C@@H](C)NC(=O)[C@H]([C@H](C)CC)NC(=O)CN(C)C(=O)[C@@H](Cc2ccccc2)N(C)C(=O)[C@H](C)NC(=O)[C@@H](CC(C)C)OC(=O)/C(C)=C/C[C@H](OC(=O)N(C)CCN(C)S(=O)(=O)c2ccc([N+](=O)[O-])cc2)[C@@H]1C [Compound 115] | < 20 | IC50 [2]: < 20 nM
9 | C/C=C(\C)[C@H]1OC(=O)[C@@H](C)NC(=O)[C@H]([C@H](C)CC)NC(=O)CN(C)C(=O)[C@@H](Cc2ccccc2)N(C)C(=O)[C@H](CCCCNC(=O)OC(C)(C)C)NC(=O)[C@@H](CC(C)C)OC(=O)/C(C)=C/C[C@H](O)[C@@H]1C [Compound 96] | < 20 | IC50 [2]: < 20 nM
10 | C/C=C(\C)[C@H]1OC(=O)[C@@H](C)NC(=O)[C@H]([C@H](C)CC)NC(=O)CN(C)C(=O)[C@@H](Cc2ccc(F)cc2)N(C)C(=O)[C@H](C)NC(=O)[C@@H](CC(C)C)OC(=O)/C(C)=C/C[C@H](OCSC)[C@@H]1C [Compound 101] | < 20 | IC50 [2]: < 20 nM
11 | CCC(C)[C@@H]1NC(=O)CN(C)C(=O)[C@@H](Cc2ccccc2)N(C)C(=O)[C@H](C)NC(=O)[C@@H](C(C)C)OC(=O)/C(C)=C/CCCCOC(=O)[C@@H](CC)NC1=O (stereo partly shown) [Compound 80] ([dHiv]A[dNMeF][Sar][Ile(3ξ)][dAbu]; linker N-C via X10) | > 10000 | –
12 | CCC(C)[C@@H]1NC(=O)CN(C)C(=O)[C@@H](Cc2ccccc2)N(C)C(=O)[C@H](C)NC(=O)[C@@H](CC(C)C)OC(=O)/C(C)=C/CCOC(=O)[C@@H](C)NC1=O (stereo partly shown) [Compound 12] ([dHica]A[dNMeF][Sar][Ile(3ξ)][dA]; linker N-C via X11) | > 10000 | –
13 | CCC(C)[C@@H]1NC(=O)CN(C)C(=O)[C@@H](Cc2ccccc2)N(C)C(=O)[C@H](C)NC(=O)[C@@H](CC(C)C)OC(=O)/C(C)=C/CCCCOC(=O)[C@@H](C)N(C)C1=O (stereo partly shown) [Compound 14] ([dHica]A[dNMeF][Sar][Ile(3ξ)][dNMeA]; linker N-C via X10) | > 10000 | –
14 | CCC(C)[C@@H]1NC(=O)CN(C)C(=O)[C@@H](Cc2ccccc2)N(C)C(=O)[C@H](C)NC(=O)[C@@H](CC(C)C)OC(=O)/C(C)=C/CCCOC(=O)[C@H](C)NC1=O (stereo partly shown) [Compound 4] ([dHica]A[dNMeF][Sar][Ile(3ξ)]A; linker N-C via X9) | > 10000 | –
15 | CCC(C)[C@@H]1NC(=O)CN(C)C(=O)[C@@H](Cc2ccccc2)N(C)C(=O)[C@H](C)NC(=O)[C@@H](CC(C)C)OC(=O)/C(C)=C/CCCOC(=O)[C@@H](C)N(C)C1=O (stereo partly shown) [Compound 10] ([dHica]A[dNMeF][Sar][Ile(3ξ)][dNMeA]; linker N-C via X9) | > 10000 | –
16 | CCC(C)[C@@H]1NC(=O)CN(C)C(=O)[C@@H](Cc2ccccc2)N(C)C(=O)[C@H](C)NC(=O)[C@@H](CC(C)C)OC(=O)/C(C)=C/CCCCOC(=O)[C@H](C)NC1=O (stereo partly shown) [Compound 17] ([dHica]A[dNMeF][Sar][Ile(3ξ)]A; linker N-C via X10) | 200 to 10000 | –
17 | CCC(C)[C@@H]1NC(=O)CN(C)C(=O)[C@@H](Cc2ccccc2)N(C)C(=O)[C@H](C)NC(=O)[C@@H](CC(C)C)OC(=O)/C(C)=C/CCCOC(=O)[C@H](C)N(C)C1=O (stereo partly shown) [Compound 9] ([dHica]A[dNMeF][Sar][Ile(3ξ)][NMeA]; linker N-C via X9) | > 10000 | –
18 | C/C=C(\C)[C@H]1OC(=O)[C@@H](C)NC(=O)[C@H]([C@H](C)CC)NC(=O)CN(C)C(=O)[C@@H](Cc2ccc(Cl)cc2)N(C)C(=O)[C@H](CCCCNC(=O)c2ccc(C(C)=O)cc2)NC(=O)[C@@H](CC(C)C)OC(=O)/C(C)=C/CC[C@@H]1C [Compound 121] | 200 to 10000 | –
19 | CCC(C)[C@@H]1NC(=O)CN(C)C(=O)[C@@H](Cc2ccccc2)N(C)C(=O)[C@H](C)NC(=O)[C@@H](CC(C)C)OC(=O)/C(C)=C/CCCCOC(=O)[C@H](CC)NC1=O (stereo partly shown) [Compound 78] ([dHica]A[dNMeF][Sar][Ile(3ξ)][Abu]; linker N-C via X10) | 200 to 10000 | –
20 | C/C=C(\C)[C@H]1OC(=O)[C@@H](C)NC(=O)[C@H](C(C)CC)NC(=O)CN(C)C(=O)[C@@H](Cc2ccccc2)N(C)C(=O)[C@H](C)NC(=O)[C@@H](CC(C)C)OC(=O)/C(C)=C/C[C@H](O)[C@H]1C (stereo partly shown) [Compound 20] | 200 to 10000 | IC50 ([1]; Homo sapiens, 72 h, Cell Titer-Glo): 389 nM
21 | CCC(C)[C@@H]1NC(=O)CN(C)C(=O)[C@@H](Cc2ccccc2)N(C)C(=O)[C@H](C)NC(=O)[C@@H](CC(C)C)OC(=O)/C(C)=C/CCCCOC(=O)CNC1=O (stereo partly shown) [Compound 79] ([dHica]A[dNMeF][Sar][Ile(3ξ)]G; linker N-C via X10) | > 10000 | –
22 | CCC(C)[C@@H]1NC(=O)CN(C)C(=O)[C@@H](Cc2ccccc2)N(C)C(=O)[C@H](C)NC(=O)[C@@H](CC(C)C)OC(=O)/C(C)=C/CCCOC(=O)[C@H](CCCCNC(=O)OC(C)(C)C)NC1=O (stereo partly shown) [Compound 11] | > 10000 | –
23 | C/C=C(\C)[C@H]1OC(=O)[C@@H](C)NC(=O)[C@H]([C@H](C)CC)NC(=O)CN(C)C(=O)[C@@H](Cc2ccccc2)N(C)C(=O)[C@H](C)NC(=O)[C@@H](CC(C)C)OC(=O)/C(C)=C/C[C@H](OC(=O)NCCCOCCOCCOCCCNC(=O)c2ccc(/C(C)=N\NC(=O)CCCCCN3C(=O)C=CC3=O)cc2)[C@@H]1C [Compound L13] | – | IC50 [1]: 20 to 200 nM
24 | C/C=C(\C)[C@H]1OC(=O)[C@@H](C)NC(=O)[C@H]([C@H](C)CC)NC(=O)CN(C)C(=O)[C@@H](Cc2ccc(Cl)cc2)N(C)C(=O)[C@H](C)NC(=O)[C@@H](CC(C)C)OC(=O)/C(C)=C/C[C@H](OCSC)[C@@H]1C [Compound 61] | < 20 | –
25 | CCC(C)[C@@H]1NC(=O)CN(C)C(=O)[C@@H](Cc2ccccc2)N(C)C(=O)[C@H](C)NC(=O)[C@@H](C(C)C)OC(=O)/C(C)=C/CCCCOC(=O)C(C)(C)NC1=O (stereo partly shown) [Compound 81] ([dHiv]A[dNMeF][Sar][Ile(3ξ)][Aib]; linker N-C via X10) | 200 to 10000 | –
26 | CCC(C)[C@@H]1NC(=O)CN(C)C(=O)[C@@H](Cc2ccccc2)N(C)C(=O)[C@H](C)NC(=O)[C@@H](CC(C)C)OC(=O)/C(C)=C/CCCOC(=O)[C@H](CCCCN)NC1=O (stereo partly shown) [Compound 60] ([dHica]A[dNMeF][Sar][Ile(3ξ)]K; linker N-C via X9) | > 10000 | –
